Results published in patent US12565497B2 (Hoffmann-La Roche Inc., priority 2020, dated 2026).

target: Recombinant human Mat2a (Homo sapiens (Human), UniProt P31153); assay: Determination of Mat2A activity (384 well absorbance-based assay, Biomol Green); assay type: biochemical; details: 12.5 nM Mat2A, 100 μM ATP and Methionine, 2% DMSO, 120 minutes at RT, absorbance at 635 nm; read-out: MAT2A_LEC IC50 (uM) (Num)
Procedure: Determination of Mat2A Activity
Measurement of Mat2A inhibition is performed in 384 well format absorbance-based assay. Recombinant human Mat2a (12.5 nM) and serial diluted compounds in DMSO (range of concentrations from 10 μM to 508 pM) or controls (DMSO) are incubated for 15 minutes at room temperature (RT) in assay buffer containing 50 mM HEPES pH 7.5, 50 mM KCl, 50 mM MgCl2, 0.01%Tween 20 and 10 mM DTT. The reaction is initiated by the addition of the combined substrates ATP and Methionine, each at a final concentration of 100 μM. Final assay condition are 12.5 nM Mat2A, 100 μM ATP and Methionine Substrates and 2% DMSO. After 120 minutes of incubation at RT, the reaction is stopped by the addition of Biomol Green. The absorbance signal is measured at λ=635 nm with a multiplate reader (BMG Pherastar reader or equivalent) after 30 min of equilibration at RT.

Recombinant human Mat2a, sequence (P31153 whole entry): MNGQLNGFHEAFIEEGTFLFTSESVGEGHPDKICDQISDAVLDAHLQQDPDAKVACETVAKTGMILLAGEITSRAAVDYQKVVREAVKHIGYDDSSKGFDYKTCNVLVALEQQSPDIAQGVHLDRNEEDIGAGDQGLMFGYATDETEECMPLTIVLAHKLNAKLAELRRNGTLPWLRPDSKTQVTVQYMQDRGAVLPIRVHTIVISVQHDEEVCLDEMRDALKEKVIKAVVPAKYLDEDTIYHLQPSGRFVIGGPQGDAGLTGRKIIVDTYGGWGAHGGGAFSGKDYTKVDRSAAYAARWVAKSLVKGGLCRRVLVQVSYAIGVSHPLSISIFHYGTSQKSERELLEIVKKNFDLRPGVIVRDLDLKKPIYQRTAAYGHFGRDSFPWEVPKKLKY

Point of comparison: `Cc1cc(-n2c(=O)c(C3CC3)cc3[nH]nc(C4CC4)c32)ccc1S(C)(=O)=O` [Example 81, 3,6-dicyclopropyl-4-(3-methyl-4-methylsulfonyl-phenyl)-1H-pyrazolo[4,3-b]pyridin-5-one], IC50 0.079 µM. Against it:
- Cc1cc(-c2nccc3[nH]nc(OC(F)(F)F)c23)ccc1S(C)(=O)=O [Example 71, 4-(3-methyl-4-(methylsulfonyl)phenyl)-3-(trifluoromethoxy)-1H-pyrazolo[4,3-c]pyridine] — lower, < 0.013 µM
- Cc1cc(-c2c(C(N)=O)ncc3[nH]nc(C4CC4)c23)ccc1S(C)(=O)=O [Example 72, 3-cyclopropyl-4-(3-methyl-4-(methylsulfonyl)phenyl)-1H-pyrazolo[3,4-c]pyridine-5-carboxamide] — lower, < 0.013 µM
- CNC(=O)c1ncc2[nH]nc(C3CC3)c2c1-c1ccc(S(C)(=O)=O)c(C)c1 [Example 73] — lower, < 0.013 µM
- Cc1cc(-c2nncc3[nH]nc(C4CC4)c23)ccc1S(C)(=O)=O [Example 74, 3-cyclopropyl-4-(3-methyl-4-(methylsulfonyl)phenyl)-1H-pyrazolo[3,4-d]pyridazine] — within 1.5-fold, 0.11 µM
- CSc1ccc2[nH]nc(C3CC3)c2c1-c1ccc(S(C)(=O)=O)c(C)c1 [Example 75, 3-cyclopropyl-4-(3-methyl-4-(methylsulfonyl)phenyl)-5-(methylthio)-1H-indazole] — 6.1-fold lower, 0.013 µM
- Cc1cc(-c2c([S+](C)[O-])ccc3[nH]nc(C4CC4)c23)ccc1S(C)(=O)=O (stereo not shown) [Example 76, 3-cyclopropyl-4-(3-methyl-4-(methylsulfonyl)phenyl)-5-(methylsulfinyl)-1H-indazole] — 3.3-fold higher, 0.26 µM
- Cc1cc(-c2c(S(C)(=O)=O)ccc3[nH]nc(C4CC4)c23)ccc1S(C)(=O)=O [Example 77, 3-cyclopropyl-4-(3-methyl-4-(methylsulfonyl)phenyl)-5-(methylsulfonyl)-1H-indazole] — 6.1-fold lower, 0.013 µM
- Cc1cc(-n2c(=O)ccc3[nH]nc(OC(F)F)c32)ccc1S(C)(=O)=O [Example 78, 3-(difluoromethoxy)-4-(3-methyl-4-methylsulfonyl-phenyl)-1H-pyrazolo[4,3-b]pyridin-5-one] — lower, < 0.013 µM
- Cc1cc(-c2c(C(F)(F)F)ncc3[nH]nc(C4CC4)c23)ccc1S(C)(=O)=O [Example 79, 3-cyclopropyl-4-(3-methyl-4-methylsulfonylphenyl)-5-(trifluoromethyl)-1H-pyrazolo[3,4-c]pyridine] — lower, < 0.013 µM
- Cc1cc(-n2c(=O)c(C)cc3[nH]nc(C4CC4)c32)ccc1S(C)(=O)=O [Example 80, 3-cyclopropyl-6-methyl-4-(3-methyl-4-methylsulfonyl-phenyl)-1H-pyrazolo[4,3-b]pyridin-5-one] — 2.5-fold lower, 0.031 µM
- Cc1cc(-c2c(OC(F)F)ncc3[nH]nc(C4CC4)c23)ccc1S(C)(=O)=O [Example 82, 3-cyclopropyl-5-(difluoromethoxy)-4-(3-methyl-4-(methylsulfonyl)phenyl)-1H-pyrazolo[3,4-c]pyridine] — lower, < 0.013 µM
- Cc1cc(-c2c(C(=O)N(C)C)ncc3[nH]nc(C4CC4)c23)ccc1S(C)(=O)=O [Example 83, 3-cyclopropyl-N,N-dimethyl-4-(3-methyl-4-(methylsulfonyl)phenyl)-1H-pyrazolo[3,4-c]pyridine-5-carboxamide] — 6.3-fold higher, 0.5 µM
- Cc1cc(-c2c(C3CC3)ncc3[nH]nc(C4CC4)c23)ccc1S(C)(=O)=O [Example 85] — 4-fold lower, 0.02 µM
- CNC(=O)c1c(F)cc2[nH]nc(C3CC3)c2c1-c1ccc(S(C)(=O)=O)c(C)c1 [Example 88, 3-cyclopropyl-6-fluoro-N-methyl-4-(3-methyl-4-(methylsulfonyl)phenyl)-1H-indazole-5-carboxamide] — lower, < 0.013 µM
- CNC(=O)c1ncc2[nH]nc(C3CC3)c2c1-c1ccc(S(=O)(=O)C2CC2)c(C)c1 [Example 89, 3-cyclopropyl-4-(4-cyclopropylsulfonyl-3-methyl-phenyl)-N-methyl-1H-pyrazolo[3,4-c]pyridine-5-carboxamide] — 2.3-fold lower, 0.035 µM
- Cc1cc(-c2c(C#N)c(Cl)cc3[nH]nc(C4CC4)c23)ccc1S(C)(=O)=O [Example 90, 6-chloro-3-cyclopropyl-4-(3-methyl-4-methylsulfonylphenyl)-1H-indazole-5-carbonitrile] — lower, < 0.013 µM
- Cc1cc(-n2c(=O)ccc3[nH]nc(OC(F)(F)F)c32)ccc1S(C)(=O)=O [Example 91, 4-(3-methyl-4-methylsulfonyl-phenyl)-3-(trifluoromethoxy)-1H-pyrazolo[4,3-b]pyridin-5-one] — lower, < 0.013 µM
- Cc1cc(-n2c(=O)ccc3[nH]cc(C4CC4)c32)ccc1S(C)(=O)=O [Example 92, 3-cyclopropyl-4-(3-methyl-4-methylsulfonyl-phenyl)-1H-pyrrolo[3,2-b]pyridin-5-one] — 2.7-fold lower, 0.029 µM
- Cc1cc(-c2c(S(C)(=O)=O)ccc3[nH]nc(OC(F)(F)F)c23)ccc1S(C)(=O)=O [Example 93, 4-(3-methyl-4-(methylsulfonyl)phenyl)-5-(methylsulfonyl)-3-(trifluoromethoxy)-1H-indazole] — lower, < 0.013 µM
- CS(=O)(=O)c1ccc(-c2c(S(C)(=O)=O)ccc3[nH]nc(C4CC4)c23)cc1C(F)F [Example 94, 3-cyclopropyl-4-(3-(difluoromethyl)-4-(methylsulfonyl)phenyl)-5-(methylsulfonyl)-1H-indazole] — 1.6-fold lower, 0.05 µM
- CNC(=O)c1ncc2[nH]nc(C3CC3)c2c1-c1cc(C)c(S(=O)(=O)C2CC2)cc1F [Example 96, 3-cyclopropyl-4-(4-cyclopropylsulfonyl-2-fluoro-5-methyl-phenyl)-N-methyl-1H-pyrazolo[3,4-c]pyridine-5-carboxamide] — lower, < 0.013 µM
- CNC(=O)c1ncc2[nH]nc(C3CC3)c2c1-c1cc(C)c(S(C)(=O)=O)cc1F [Example 97, 3-cyclopropyl-4-(2-fluoro-5-methyl-4-methylsulfonyl-phenyl)-N-methyl-1H-pyrazolo[3,4-c]pyridine-5-carboxamide] — lower, < 0.013 µM
- Cc1cc(-c2c(C(N)=O)ncc3[nH]nc(OC(F)F)c23)ccc1S(C)(=O)=O [Example 98, 3-(difluoromethoxy)-4-(3-methyl-4-methylsulfonyl-phenyl)-1H-pyrazolo[3,4-c]pyridine-5-carboxamide] — lower, < 0.013 µM
- CC(=O)NCCOCCNc1cnc(-c2ccc(S(C)(=O)=O)c(C)c2)c2c(C3CC3)n[nH]c12 [Example 99, N-[2-[2-[[3-cyclopropyl-4-(3-methyl-4-methylsulfonyl-phenyl)-1H-pyrazolo[4,3-c]pyridin-7-yl]amino]ethoxy]ethyl]acetamide] — within 1.5-fold, 0.07 µM
- CC(=O)NCCCNc1cnc(-c2ccc(S(C)(=O)=O)c(C)c2)c2c(C3CC3)n[nH]c12 [Example 100, N-[3-[[3-cyclopropyl-4-(3-methyl-4-methylsulfonyl-phenyl)-1H-pyrazolo[4,3-c]pyridin-7-yl]amino]propyl]acetamide] — 2.6-fold lower, 0.03 µM
- Cc1cc(-c2ncc(NCCOCCN)c3[nH]nc(C4CC4)c23)ccc1S(C)(=O)=O [Example 101, N-[2-(2-aminoethoxy)ethyl]-3-cyclopropyl-4-(3-methyl-4-methylsulfonyl-phenyl)-1H-pyrazolo[4,3-c]pyridin-7-amine] — 1.8-fold higher, 0.14 µM
- Cc1cc(-c2ncc(NCCCCN)c3[nH]nc(C4CC4)c23)ccc1S(C)(=O)=O [Example 102, N′-[3-cyclopropyl-4-(3-methyl-4-methylsulfonyl-phenyl)-1H-pyrazolo[4,3-c]pyridin-7-yl]butane-1,4-diamine] — within 1.5-fold, 0.06 µM
